Data reported in US8394758B2, “Tumor-targeting peptides and uses thereof” (Academia Sinica, priority 2008, dated 2013).

Tests used:
[1] = system: Non-small cell lung cancer xenografts; experiment: Doxorubicin levels in tumor tissue and tumor cell nuclei (spectrofluorometry); assay type: in vivo, SCID mice; conditions: 2 mg/kg doxorubicin
Protocol: Non-small cell lung cancer xenografts (˜300 mm^3) were induced in SCID mice following the method described in Example 2 above. These mice were treated with PIVO-2-LD, PIVO-8-LD, PIVO-24-LD, LD, and FD at a doxorubicin dose of 2 mg/kg and sacrificed 1 h, 4 h, or 24 h later. Blood samples were collected from the mice via submaxillary punctures and plasma samples were prepared therefrom. In addition, xenografts and normal organs were removed, part of them being homogenized to isolate cell nuclei. Doxorubicin was extracted either from the tumor tissue or from the nuclei following the method described in Laginha et al., Clin. Cancer Res. 11:6944-6949, 2005 and Mayer et al., J. Pharmacol. Exp. Ther. 280:1406-1414, 1997. The amount of doxorubicin was determined by spectrofluorometry at λex 485/20 nm and λcm 645/40 nm (Synergy HT Multi-Detection Microplate Reader, BioTek Instruments, Winooski, Vt. 05404 USA). Based on the amounts of doxorubicin in tumor tissues at different time points, concentration-time curves of doxorubicin were prepared and the areas under the curves from 0-48 hours (AUC0-48 hours) were determined.

tumor xenografts = experiment: Histopathology of tumor tissues by H&E staining; assay type: in vivo, SCID mice; conditions: doxorubicin 1 mg/kg twice a week for four weeks
[2] = system: lung tumor xenografts, tumor neovasculature; experiment: Immuno-staining of phage (anti-M13) and blood vessels (anti-CD31) in lung tumor xenografts and normal organs; assay type: in vivo, SCID mice
From the text: The accumulation of the phage clones in tumor mass was further examined by an immuno-staining assay, using an anti-M13 phage monoclonal antibody (Amersham Biosciences, Uppsala, Sweden). Briefly, after injection of the phage clones, normal organ samples and tumor samples were obtained, each divided into two parts. Bound phage particles were released from one part of the samples and titered using bacterium ER2738. The other part of each of the samples was embedded in Optimal Cutting Temperature (OCT, Tissue-Tek, NL, USA). The OCT-embedded samples (frozen) were sectioned (5 micron) and transferred to cold PBS. The sections were fixed with acetone-methanol (1:1) on slides, washed with PBS, and immersed in a blocking buffer (1% BSA in PBS) for 1 h. Then, the slides were incubated with rat anti-mouse CD31 antibody (an antibody recognizing blood vessels; BD Pharmingen, MA, USA.) and rabbit anti-rat Ig antibody (Stressgen, Canada), and immersed in Rhodamine labeled goat anti-rabbit Ig antibody (Jackson ImmunoResearch, PA, USA). The slides were further incubated with mouse anti-M13 phage monoclonal antibody (Amersham Biosciences, Uppsala, Sweden), then with FITC-labeled goat anti-mouse Ig antibody (Jackson ImmunoResearch, PA, USA), and finally immersed in a solution containing Hoechst 33258 (Molecular Probe, OR, USA). After being washed and mounted with a mounting medium (Vector, Calif., USA), the slides were examined under a Leica Confocal Microscope (TCS-SP5-AOBS). Images of the slides were processed with the Leica Application Suite Advanced Fluorescence software.

[3] = system: H460 cells (lung cancer) xenografts; experiment: In vivo homing of phage clones to lung cancer xenografts, alone or with synthetic peptide (phage titer); set-up: species or system SCID mice; conditions: 100 μg synthetic peptide co-injected
Protocol: Eight minutes after the injection, the phage-treated SCID mice were perfused with 50 ml PBS to wash away phage particles unbound to tissues. Normal organs (e.g., lung, heart, brain) and tumor mass were removed from the mice, weighed, washed with PBS, and homogenized to release tissue-bound phage particles, if any. The released phage particles were titered using bacterium ER2738 (New England BioLabs, MA, USA) grown on IPTG-X-gal-containing agar plates, and amplified in the same bacterium following the manufacturer's protocol.
H460 cells (a lung cancer cell line) were injected subcutaneously (s.c.) into the dorsolateral flanks of SCID mice (4-6 weeks of age) to form lung cancer xenografts. Each of phage clones IVO 2, IVO 8, and IVO 24, displaying peptide SVSVGMKPSPRP (SEQ ID NO:1), SNPFSKPYGLTV (SEQ ID NO:3), and YPHYSLPGSSTL (SEQ ID NO:5), respectively, was injected (i.v.) into the tail veins of the mice bearing the xenografts (˜100 mm^3), either alone or with 100 μg synthetic peptides SVSVGMKPSPRP (SEQ ID NO:1), SNPFSKPYGLTV (SEQ ID NO:3), or YPHYSLPGSSTL (SEQ ID NO:5). Normal organs and tumor mass were removed from these mice and processed as described in Example 1 above. The phage titers in the normal organs and tumor mass were determined following the procedure also described in Example 1.

With `COc1cccc2c1C(=O)c1c(O)c3c(c(O)c1C2=O)C[C@@](O)(C(=O)CO)C[C@@H]3O[C@H]1C[C@H](N)[C@H](O)[C@H](C)O1` [FD, doxorubicin] the “Nucleus (AUC0-48 h) doxorubicin” value ([1]; tumor cell nuclei (bioavailable doxorubicin)) was 3.68 µg·h/g, the “Tumor (AUC0-48 h) doxorubicin” value ([1]; tumor tissue) was 10.23 µg·h/g and the “necrotic/apoptotic area (combined) in tumor xenografts” value (tumor xenografts) was “only a moderate necrotic/apoptotic area”.
In the case of SNPFSKPYGLTV (Tumor-Targeting Peptide), the “blocking by synthetic peptide of binding of the corresponding phage clone to lung tumor tissues” value (from here on “blocking by synthetic peptide”) [2] is reported as “blocked binding” and the “inhibition by synthetic peptide of accumulation in tumor mass of the phage clone displaying the same peptide” value (from here on “inhibition by synthetic peptide”) [3] is reported as “inhibited accumulation”.
With SVSVGMKPSPRP (Tumor-Targeting Peptide) the “blocking by synthetic peptide” value [2] was “blocked binding” and the “inhibition by synthetic peptide” value [3] was “inhibited accumulation of phage clone IVO 2”.
With YPHYSLPGSSTL (Tumor-Targeting Peptide) the “blocking by synthetic peptide” value [2] was “blocked binding” and the “inhibition by synthetic peptide” value [3] was “inhibited accumulation”.
